From BindingDB's records for patent US10294246 (Merck Patent, 2019) come the findings set out here.

pIC50: −log10 of the molar value.

For the test, the target named is T1, Proteasome subunit beta type-8 (Homo sapiens, UniProt P28062).
T1 sequence (P28062 whole entry): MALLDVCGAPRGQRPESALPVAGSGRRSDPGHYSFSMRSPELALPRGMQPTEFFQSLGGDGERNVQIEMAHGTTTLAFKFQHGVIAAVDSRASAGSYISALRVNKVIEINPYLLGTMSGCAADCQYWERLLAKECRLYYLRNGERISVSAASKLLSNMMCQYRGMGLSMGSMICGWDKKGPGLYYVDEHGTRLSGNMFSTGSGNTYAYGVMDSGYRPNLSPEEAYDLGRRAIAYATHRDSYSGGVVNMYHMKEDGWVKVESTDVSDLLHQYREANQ
As to the kind of experiment: Determination of LMP7 Activity. The procedure:
Measurement of LMP7 inhibition is performed in 384 well format based on fluorescence intensity assay.Purified human immunoproteasome (0.25 nM) and serial diluted compounds in DMSO (range of concentrations from 30 μM to […]) or controls are incubated for 20 minutes at 25° C. in assay buffer containing 50 mM Tris pH 7.4, 0.03% SDS, 1 mM EDTA and 1% DMSO. The reaction is initiated by the addition of the fluorogenic peptide substrate, Suc-LLVY-AMC (Bachem 1-1395), at a concentration of 40 μM. After 60 minutes of incubation at 37° C., fluorescence intensity is measured at λex=350 nm and λem=450 nm with a fluorescence reader (Perkin Elmer Envision reader or equivalent).
`Cc1ccc(OCCC(=O)N[C@@H](Cc2coc3ccccc23)B(O)O)cc1` [US10294246, Compound No. 7]: the pIC50 was over 7.30.
`CC(=O)Nc1ccc(CC(=O)N[C@@H](Cc2coc3ccccc23)B(O)O)cc1` [US10294246, Compound No. 26] had a negative-log IC50 (pIC50) of over 7.30.
The figure for `CC(=O)Nc1cccc(CC(=O)N[C@@H](Cc2coc3ccccc23)B(O)O)c1` [US10294246, Compound No. 32] is over 7.30; for `CO[C@H](C(=O)N[C@@H](Cc1coc2ccccc12)B(O)O)c1ccccc1` [US10294246, Compound No. 33] it is over 7.30.
The figure for `C[C@H](C(=O)N[C@@H](Cc1coc2ccccc12)B(O)O)c1ccccc1` [US10294246, Compound No. 37] is over 7.30; for `COc1ccc(C(F)(F)C(=O)N[C@@H](Cc2coc3ccccc23)B(O)O)cc1` [US10294246, Compound No. 51] it is over 7.30.
Take `CCO[C@@H](C(=O)N[C@@H](Cc1coc2ccccc12)B(O)O)c1ccccc1` [US10294246, Compound No. 70]: the pIC50 is over 7.30.
